# From patent US20170049842A1, “FOOD ADDITIVE FOR PRODUCING FOOD FOR PREVENTING CRANIAL NERVE DISEASE AND/OR IMPROVING BRAIN FUNCTION” (FUJI OIL HOLDINGS INC., priority 2014, published 2017)
# Like-named read-outs stand apart in the source and are kept apart here. Peptide text beside a SMILES is read from it.
# Tests used:
# [1] = tested on: Caco-2 cell monolayers; assay: Permeability coefficient (Papp) across Caco-2 cell monolayers in Ussing Chamber; conditions: compared with the other ARPs
# Description: (§1) The measurement of permeability coefficient, which was an index of absorbability in the intestinal tract, of ARPs was performed as follows.
# (§2) Caco-2 cells were seeded in Cell culture insert at 4.0×10^5 cells/mL, and cultured for 3 days in an intestinal epithelial differentiation promoting medium. Caco-2 cell monolayers were cut and set to Ussing Chamber. Hanks' Balanced Salt Solution (HBSS) (apical membrane side: pH 6.0, basolateral membrane side: pH 7.4) was added in each Chamber. After 15 minutes preliminary heat retention (37° C., 95% O2/5% CO2 mixture gas), each ARPs aqueous solution (10 mM) was added to apical membrane side. Samples were recovered from the basolateral membrane side every 15 minutes (total 60 minutes). The recovered sample was subjected to ESI-TOF-MS (Electro Spray Ionization-Time of Flight-Mass Spectrometry) analysis to determine permeated peptide amount. Permeability coefficient (Papp) was calculated according to the following formula.
# (§3) C0: concentration of added peptide (mmol/L)
# (§4) dC/dt: Permeated amount of peptide per time (mmol/L·sec)
# (§5) Concentration of peptide, which transitioned to the basolateral membrane side in each time, was calculated based on the area from reference standard. In addition, it was confirmed that they were not degraded to amino acids.
# (§6) Permeated peptide amount per time was calculated and permeability coefficient (Papp) was calculated according to the above formula.
# [2] = as above; conditions: Caco-2; for Papp A→B at 60 min, 10 mM: human
# Description: as §1, §2, §3, §4, §5, §6
# [3] = in vitro; conditions: human, Caco-2
# Description: as §1, §2, §3, §4, §5, §6
# [4] = tested on: Caco-2 cell monolayers
# Description: as §1, §2, §3, §4, §5, §6
"permeability coefficient / permeation efficiency in mesenteric model cell, in words [1]",Papp A→B [2],SMILES,also measured
relatively high permeation efficiency,0.885 ± 0.215 ×10⁻⁶ cm/s,"N[C@@H](Cc1ccc(O)cc1)C(=O)N1CCC[C@H]1C(=O)O [E, Tyr-Pro] (H-Tyr-Pro-OH; N-terminus and C-terminus assumed)",–
relatively high permeation efficiency,0.72 ± 0.272 ×10⁻⁶ cm/s,"N[C@@H](CO)C(=O)N[C@@H](Cc1ccc(O)cc1)C(=O)O [A, Ser-Tyr] (H-Ser-Tyr-OH; N-terminus and C-terminus assumed)",–

# The next lines start with the molecule.
SMILES,"permeability coefficient / permeation efficiency in mesenteric model cell, in words [1]",Papp A→B [2],also measured
"N[C@@H](Cc1ccccc1)C(=O)N[C@@H](Cc1ccc(O)cc1)C(=O)O [G, Phe-Tyr] (H-Phe-Tyr-OH; N-terminus and C-terminus assumed)",–,–,"Papp A→B at 60 min, 10 mM [2]: 0.006 ± 0.0001 ×10⁻⁶ cm/s"
"NC(=O)C[C@H](NC(=O)[C@@H](N)Cc1ccc(O)cc1)C(=O)O [F, Tyr-Asn] (H-Tyr-Asn-OH; N-terminus and C-terminus assumed)",–,0.044 ± 0.009 ×10⁻⁶ cm/s,–
"CC(C)C[C@H](NC(=O)[C@@H](N)Cc1ccc(O)cc1)C(=O)O [B, Tyr-Leu] (H-Tyr-Leu-OH; N-terminus and C-terminus assumed)",–,–,"Papp A→B at 60 min, 10 mM [3]: 0.596 ± 0.198 ×10⁻⁶ cm/s; permeability coefficient / permeation efficiency in mesenteric model cell, in words [4]: relatively higher permeability coefficient than the other ARPs"
"N[C@@H](Cc1ccc(O)cc1)C(=O)N[C@@H](CO)C(=O)O [D, Tyr-Ser] (H-Tyr-Ser-OH; N-terminus and C-terminus assumed)",relatively higher permeability coefficient than the other ARPs,0.248 ± 0.088 ×10⁻⁶ cm/s,–
"N=C(N)NCCC[C@H](NC(=O)[C@@H](N)Cc1ccc(O)cc1)C(=O)O [Peptide C, Tyr-Arg]",–,–,"Papp A→B at 60 min, 10 mM [2]: 0.05 ± 0.011 ×10⁻⁶ cm/s"
"CC[C@H](C)[C@H](N)C(=O)N[C@@H](Cc1ccc(O)cc1)C(=O)O [H, Ile-Tyr] (H-Ile-Tyr-OH; N-terminus and C-terminus assumed)",relatively high permeation efficiency,2.92 ± 0.265 ×10⁻⁶ cm/s,–
